Assay results published in patent publication US20250186448A1 (Mezzion Pharma Co., Ltd., priority 2021, published 2025).
Several values for one entry are separate records, joined by “and”; a condition that tells them apart may be missing. Equal values may be shown once.

Tests used:
Type in all cases: in vivo, human
[1] = test system: adolescents with Single Ventricle Heart Disease who underwent Fontan palliation; assay: FALD study: liver stiffness by MR elastography; set-up: MRE, Post Baseline: unit not given beside the values; MRE, Change from Baseline / MRE, Baseline: unit not given here
Description: MR elastography uses a vibrating passive driver or “paddle” placed on the abdominal wall over the liver in order to generate in vivo shear waves. These shear waves can be tracked using an MRI modified phase contrast pulse sequence. Shear wave data is then used to generate color parameteric maps (elastograms) of liver stiffness that allow quantitative assessment (FIG. 4). […] Pairwise ICCs ranged from 0.67-0.82 when agreement was assessed between individual sequences across manufacturers (GE vs. Philips); the greatest agreement while fixing the pulse sequence was at 1.5 T using 2D GRE sequences (ICC=0.82, r=0.85). Trout […], Kohli R, Sprague […]. Prospective assessment of correlation between US acoustic radiation forced impulse and MR elastography in a pediatric population: Dispersion of US shear-wave speed measurement matters. Radiology 2016 December; 282(3): 544-552. The FALD study, ClinicalTrials.gov Identifier: NCT03430583, which is incorporated herein by reference in its entirety, was an open-label extension study that integrated with the FUEL Extension Trial. […] Both the U- cohort and the U+ cohort had liver stiffness measured by ultrasound and MR elastography (where available), and ELF biomarkers analyzed, as described above. […] The primary outcome measure of the FALD study was the range of liver stiffness in adolescents with Single Ventricle Heart Disease who underwent Fontan palliation. Secondary outcome measures included the effect of drug therapy on liver stiffness, and the effect of drug therapy on Enhanced Liver Fibrosis (ELF) score. See Clinical Trials.gov identifier NCT03430583, at p. 3. It is to be understood that present invention contemplates udenafil drug products that are therapeutically equivalent to the udenafil drug products of the present invention.

[2] = test system: adolescents with Single Ventricle Heart Disease who underwent Fontan palliation; assay: FALD study: circulating biomarkers of heart failure and liver fibrosis (HA, PIIINP, TIMP-1, BNP and others); set-up: HA, Post Baseline / TIMP−1, Post Baseline: unit not given beside the values; HA, Change from Baseline / TIMP−1, Change from Baseline / BNP, Change from Baseline: unit not given here; settings: Cohort U− (udenafil for 52 weeks), individual subject
Description: As noted previously, increased liver stiffness can be secondary to hepatic congestion and/or hepatic fibrosis. […] For instance, patients with increased liver stiffness due to hepatic congestion may have increased biomarkers of heart failure (e.g., BNP, NT-proBNP). […] The relative contribution of congestion or fibrosis (as determined by biomarker profiles) to the observed level of liver stiffness may correlate with which therapeutic strategies are likely to be successful in a particular patient. Therefore, in this aim, we sought to determine which circulating biomarkers correlate with measures of liver stiffness and which correlate with a change in liver stiffness with udenafil treatment. We used both a directed approach, with an analysis of candidate biomarkers validated for other disease processes, and a non-directed approach, which identifies novel biomarkers associated with FALD. The FALD study, ClinicalTrials.gov Identifier: NCT03430583, which is incorporated herein by reference in its entirety, was an open-label extension study that integrated with the FUEL Extension Trial. […] Both the U− cohort and the U+ cohort had liver stiffness measured by ultrasound and MR elastography (where available), and ELF biomarkers analyzed, as described above. […] The Enhanced Liver Fibrosis (ELF) scores were based on the serum levels of hyaluronic acid (HA), amino-terminal propeptide of type III collagen (PIIINP), and tissue inhibitor of metalloproteinase-1 (TIMP-1). Testing was performed by the FUEL-OLE Central Laboratory using the serum samples. In accordance with prior studies, we assigned those patients with scores of <7.7 to the no-fibrosis or mild fibrosis group, 7.7-9.8 to the moderate fibrosis group, 9.8-11.3 to the severe fibrosis group, and >11.3 to the cirrhosis group.

[3] = test system: adolescents with Single Ventricle Heart Disease who underwent Fontan palliation; assay: FALD study: liver stiffness by ultrasound shear wave elastography (SWE); set-up: USWE, Post Baseline: unit not given beside the values; USWE, Change from Baseline: unit not given here; settings: Cohort U− (udenafil for 52 weeks), individual subject
Description: Ultrasound SWE uses one or more acoustic radiation force impulses (ARFI) or “push pulses” to generate shear waves in the tissue of interest. These shear waves can be tracked and their speed measured, with increasing tissue stiffness associated with increasing tissue shear wave speed. Shear wave speed can be mathematically converted to both shear and Young's moduli (in kPa), mechanical properties related to tissue rigidity and elasticity. There are two major forms of ultrasound SWE-“point” and “2D”. Point ultrasound SWE provides a very focal estimate of liver stiffness using a small region-of-interest, wh[…] ultrasound SWE provides a regional color parameteric map (elastogram) of image stiffness and allows measurement over a much larger area of the liver. The FALD study, ClinicalTrials.gov Identifier: NCT03430583, which is incorporated herein by reference in its entirety, was an open-label extension study that integrated with the FUEL Extension Trial. […] Both the U- cohort and the U+ cohort had liver stiffness measured by ultrasound and MR elastography (where available), and ELF biomarkers analyzed, as described above. […] The primary outcome measure of the FALD study was the range of liver stiffness in adolescents with Single Ventricle Heart Disease who underwent Fontan palliation. Secondary outcome measures included the effect of drug therapy on liver stiffness, and the effect of drug therapy on Enhanced Liver Fibrosis (ELF) score. See Clinical Trials.gov identifier NCT03430583, at p. 3. It is to be understood that present invention contemplates udenafil drug products that are therapeutically equivalent to the udenafil drug products of the present invention.

[4] = Cohort U+ (udenafil for 78 weeks), individual subject
[5] = Cohort U− (udenafil for 52 weeks), individual subject
[6] = individual subject listing, Safety Population

CCCOc1ccc(S(=O)(=O)NCCC2CCCN2C)cc1-c1nc2c(CCC)nn(C)c2c(=O)[nH]1 (stereo not shown) [Udenafil, udenafil]
MRE, % Change from Baseline [1, 4]: 2.863% and −2.262% and 12.04% and −0.4975% and 7.265% and −14.99% and −24.27% and 16.67% and 18.93% and 0.4975% and −29.4964% and 2.198% and −16.26% and 10.4% and −20.63% and −8.58% and −11.11% and −19.68% and −21.1704% and −12.02% and −6.235%
MRE, Change from Baseline [1, 4]: 0.15 and −0.1 and 0.49 and −0.03 and 0.98 and 0.34 and −0.52 and −1.59 and 0.81 and 0.03 and −1.64 and 0.1 and −0.86 and 0.7 and −1.05 and −0.58 and −0.67 and −0.98 and −1.23 and −0.59 and −0.26
MRE, Baseline ([1]; Cohort U+ (udenafil for 78 weeks), individual subject, Baseline visit): 4.42 and 5.88 and 4.07 and 6.03 (3×) and 4.68 and 3.47 and 6.55 and 4.28 and 5.56 and 3.65 and 4.55 and 5.29 and 6.73 and 5.09 and 6.76 and 4.98 and 5.81 and 4.91 and 4.17 and 5.24
MRE, Post Baseline ([1]; Cohort U+ (udenafil for 78 weeks), individual subject, Post Baseline visit (52 week)): 5.39 and 4.32 (2×) and 6.86 and 4.56 and 6 and 5.02 and 2.95 and 4.96 and 5.09 and 6.06 and 3.92 and 4.65 and 4.43 and 7.43 and 4.04 and 6.18 and 5.36 and 4 and 4.58 and 3.91
MRE, % Change from Baseline [1, 5]: 8.484% and 8.085%
MRE, Change from Baseline [1, 5]: 0.61 and 0.19
MRE, Post Baseline ([1]; Cohort U− (udenafil for 52 weeks), individual subject, Post Baseline visit (52 week)): 7.8 and 2.54
MRE, % Change from Baseline [1, 6]: 2.488% and −28.79% and 3.632% and −2.018% and −21.1838% and 67.93% and 25.85% and 11.98% and −10.36% and 12.33% and −5.348% and 17.24% and 33.15% and −8% and −7.32%
MRE, Change from Baseline [1, 6]: 0.1 and −1.48 and 0.15 and −0.11 and −1.36 and 3.05 and 1.22 and 0.72 and −0.43 (2×) and 0.64 and 1 and 1.2 and −0.44 and −0.53
MRE, Post Baseline ([1]; individual subject listing, Safety Population, Post Baseline visit): 4.12 and 3.66 and 4.28 and 5.34 and 5.06 (2×) and 7.54 and 5.94 and 6.73 and 3.72 and 5.83 and 2.81 and 7.61 and 6.8 and 4.82 and 6.71
BNP, % Change from Baseline [2]: −83.33% and −55.56% and −96.2963% and −33.75% and −25.17% and −20%
BNP, Change from Baseline [2]: −5 and −25 and −26 and −10.7 and −3.7 and −6.5 and −3
HA, % Change from Baseline [2]: −23.28% and −55.89% and −92.1% and −78.47% and 255.6% and 69.68%
HA, Change from Baseline [2]: −10.87 and −67.92 and −82.42 and −137.35 and 54.28 and 27.67 and 3.05
PIIINP, % Change from Baseline [2]: −52.39% and −50.4522% and 5.12% and −50.05% and −15.3% and 66.2%
PIIINP, Change from Baseline [2]: −19.04 and −15.62 and 0.77 and −23.08 and −2.33 and 9.99 and 1.99
TIMP−1, % Change from Baseline [2]: 1.424% and 1.608% and 25.82% and −5.136% and 3.739% and 19.54%
TIMP−1, Change from Baseline [2]: 2.3 (2×) and 39.4 and −9.8 and 6.2 and 47.1 and 56.3
BNP, Post Baseline ([2]; Post Baseline visit (52 week)): 1 (2×) and 20 and 21 and 11 and 26 and 3
HA, Post Baseline ([2]; Post Baseline visit (52 week)): 35.83 and 53.6 and 7.07 and 37.68 and 75.52 and 67.38 and 23.1
PIIINP, Post Baseline ([2]; Post Baseline visit (52 week)): 17.3 and 15.34 and 15.81 and 23.03 and 12.9 and 25.08 and 27.3
TIMP−1, Post Baseline ([2]; Post Baseline visit (52 week)): 163.8 and 145.3 and 192 and 181 and 172 and 288.2 and 290.4
USWE, % Change from Baseline [3]: −2.439% and −7.692% and 6.011% and 20.92% and −0.9302% and −22.07% and −1.22%
USWE, Change from Baseline [3]: −0.06 and −0.13 and 0.11 and 0.41 and −0.02 (2×) and −0.49 and 0.09
USWE, Post Baseline ([3]; Post Baseline visit (52 week)): 2.4 and 1.56 and 1.94 and 2.37 and 2.13 and 1.73 and 1.62 and 2.08
